“Also recorded” adds a separate entry of the source. Read-outs that look alike come from different tables or passages of the source.
Experiments:
[1] = humans; cited from earlier work
[2] = memantine and morphine combination
[3] = humans; cited from earlier work; remark: listed apart in the source

In the case of `NC12CC3CC(CC(C3)C1)C2` [Amantadine, 1-amino-adamantane], the “Human PK (t½)” value [1] is listed as 15 h and the Tmax [1] is listed as 3 h.

For `CC12CC3CC(C)(C1)CC(N)(C3)C2` [Memantine, 1-amino-3,5-dimethyladamantane], the cum. fraction ([2]; Time 1) was 0.2, the cum. fraction ([2]; Time 2) was 0.3 and the cum. fraction ([2]; Time 4) was 0.4. It also gave a cum. fraction ([2]; Time 8) of 0.5, a cum. fraction ([2]; Time 12) of 0.6 and a cum. fraction ([2]; Time 16) of 0.7. The cum. fraction ([2]; Time 20) was 0.8, the cum. fraction ([2]; Time 24) was 0.9 and the Tmax [1] was 3 h. The “Dose Dependent Tox” value [3] was “Dose escalation; also recorded: hallucination”.

In the case of `CC(N)C12CC3CC(CC(C3)C1)C2` (stereo not shown) [Rimantadine, 1-(1-aminoethyl)adamantane], the “Human PK (t½)” value [1] is given as 25 h and the Tmax [1] is given as 6 h.

Work on `CN1CC[C@]23c4c5ccc(O)c4O[C@H]2[C@@H](O)C=C[C@H]3[C@H]1C5` [Morphine] yielded a cum. fraction ([2]; Time 1) of 0.2, a cum. fraction ([2]; Time 2) of 0.3 and a cum. fraction ([2]; Time 4) of 0.4. It also gave a cum. fraction ([2]; Time 8) of 0.5, a cum. fraction ([2]; Time 12) of 0.6 and a cum. fraction ([2]; Time 16) of 0.7. For the same molecule, the cum. fraction ([2]; Time 20) was 0.8 and the cum. fraction ([2]; Time 24) was 0.9.
